According to patent publication US10294202B2, “Pyrrolidinones as herbicides” (FMC Corporation, priority 2013, dated 2019):

How the values were obtained:
barnyardgrass [1] = experiment: Test A pre-/postemergence herbicide test; assay type: in vivo, Echinochloa crus-galli
Outline: (§1)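 Greenhouse pot test with pre- and postemergence application of surfactant-containing solvent formulations. Postemergence plants were 2–10 cm, one- to two-leaf stage. Response scored visually after ~10 days, 0 (no effect) to 100 (complete control).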

kochia = experiment: Test A pre-/postemergence herbicide test; assay type: in vivo, Kochia scoparia; details: for Plant response rating, Kochia: 0 to 100 scale
Outline: as §1

ragweed = experiment: Test A pre-/postemergence herbicide test; assay type: in vivo, Ambrosia elatior; details: for Plant response rating, Ragweed: 0 to 100 scale
Outline: as §1

ryegrass, Italian = experiment: Test A pre-/postemergence herbicide test; assay type: in vivo, Lolium multiflorum; details: for Plant response rating, Ryegrass, Italian: 0 to 100 scale
Outline: as §1

giant foxtail = experiment: Test A pre-/postemergence herbicide test; assay type: in vivo, Setaria faberii; details: for Plant response rating, Foxtail, Giant: 0 to 100 scale
Outline: as §1

pigweed = experiment: Test A pre-/postemergence herbicide test; assay type: in vivo, Amaranthus retroflexus; details: for Plant response rating, Pigweed: 0 to 100 scale
Outline: as §1

wheat = experiment: Test A pre-/postemergence herbicide test; assay type: in vivo, Triticum aestivum; details: Postemergence; for Plant response rating, Wheat: 125 g ai/ha, 0 to 100 scale, 0 is no effect, 100 is complete control; for Wheat plant response rating (0 to 100 scale, 0 is no effect, 100 is complete control): 500 g ai/ha
Outline: as §1

corn = experiment: Test A pre-/postemergence herbicide test; assay type: in vivo, Zea mays; details: Postemergence; for Plant response rating, Corn: 125 g ai/ha, 0 to 100 scale, 0 is no effect, 100 is complete control; for Corn plant response rating (0 to 100 scale, 0 is no effect, 100 is complete control): 500 g ai/ha
Outline: as §1

blackgrass = experiment: Test A postemergence herbicide test; assay type: in vivo, Alopecurus myosuroides; details: for Plant response rating, Blackgrass: 125 g ai/ha, 0 to 100 scale, 0 is no effect, 100 is complete control; for Blackgrass plant response rating (0 to 100 scale, 0 is no effect, 100 is complete control): 500 g ai/ha
Outline: (§2)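 Ratings compare treated with untreated plants roughly 10 days after a postemergence application made at the one- to two-leaf stage. Scoring uses 0–100, where 0 means no effect and 100 complete control.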

galium = experiment: Test A postemergence herbicide test; assay type: in vivo, Galium aparine; details: for Plant response rating, Galium: 125 g ai/ha, 0 to 100 scale, 0 is no effect, 100 is complete control; for Galium plant response rating (0 to 100 scale, 0 is no effect, 100 is complete control): 500 g ai/ha
Outline: as §2

rice = experiment: Test B flooded paddy test; assay type: in vivo, Oryza sativa; details: 500 g ai/ha, Flood; scale of 0 to 100 where 0 is no effect and 100 is complete control
Outline: (§3)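 Scoring: visual, compared with untreated controls, 0 = no effect through 100 = complete control, taken 13 to 15 days after treatment in the greenhouse. Compounds had been added to paddy water over soil flooded 3 cm deep at the plants' 2-leaf stage.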

sedge, umbrella = experiment: Test B flooded paddy test; assay type: in vivo, Cyperus difformis; details: 500 g ai/ha, Flood; scale of 0 to 100 where 0 is no effect and 100 is complete control
Outline: as §3

ducksalad = experiment: Test B flooded paddy test; assay type: in vivo, Heteranthera limosa; details: 500 g ai/ha, Flood; scale of 0 to 100 where 0 is no effect and 100 is complete control
Outline: as §3

barnyardgrass [2] = experiment: Test B flooded paddy test; assay type: in vivo, Echinochloa crus-galli; details: 500 g ai/ha, Flood; scale of 0 to 100 where 0 is no effect and 100 is complete control
Outline: as §3

[3] = 125 g ai/ha, visual rating, 0 to 100 scale, 0 no effect, 100 complete control, approximately 10 days, preemergence
[4] = Postemergence, 125 g ai/ha, 0 to 100 scale, 0 is no effect, 100 is complete control
[5] = 125 g ai/ha, visual rating, 0 no effect, 100 complete control, approximately 10 days, preemergence
[6] = Postemergence, 125 g ai/ha, 0 is no effect, 100 is complete control
[7] = preemergence, 500 g ai/ha, 0 is no effect and 100 is complete control

| SMILES | Plant response rating, Barnyardgrass (barnyardgrass [1]; [3]) | Plant response rating, Barnyardgrass (barnyardgrass [1]; [4]) | Barnyardgrass plant response rating (0 to 100 scale, 0 is no effect, 100 is complete control) (barnyardgrass [1]; Postemergence, 500 g ai/ha) | Plant response rating, Kochia (kochia; [5]) | Plant response rating, Kochia (kochia; [6]) | Kochia plant response rating (0 to 100 scale, 0 is no effect, 100 is complete control) (kochia; Postemergence, 500 g ai/ha) | Plant response rating, Kochia (kochia; [7]) | Plant response rating, Ragweed (ragweed; [5]) | Plant response rating, Ragweed (ragweed; [6]) | Ragweed plant response rating (0 to 100 scale, 0 is no effect, 100 is complete control) (ragweed; Postemergence, 500 g ai/ha) | Plant response rating, Ragweed (ragweed; [7]) | Plant response rating, Ryegrass, Italian (ryegrass, Italian; [5]) | Plant response rating, Ryegrass, Italian (ryegrass, Italian; [6]) | Ryegrass, Italian plant response rating (0 to 100 scale, 0 is no effect, 100 is complete control) (ryegrass, Italian; Postemergence, 500 g ai/ha) | Plant response rating, Ryegrass, Italian (ryegrass, Italian; [7]) | Plant response rating, Foxtail, Giant (giant foxtail; [5]) | Plant response rating, Foxtail, Giant (giant foxtail; [6]) | Foxtail, Giant plant response rating (0 to 100 scale, 0 is no effect, 100 is complete control) (giant foxtail; Postemergence, 500 g ai/ha) | Plant response rating, Pigweed (pigweed; [5]) | Plant response rating, Pigweed (pigweed; [6]) | further results |
| --- | --- | --- | --- | --- | --- | --- | --- | --- | --- | --- | --- | --- | --- | --- | --- | --- | --- | --- | --- | --- | --- |
| CON(C(=O)C1C(=O)NCC1c1ccc(F)c(F)c1)c1cc([N+](=O)[O-])ccc1F (stereo not drawn) [Compound 175] | 0 | 0 | 0 | 0 | 0 | 0 | 0 | 0 | 0 | 0 | 0 | 0 | 0 | 0 | 0 | 0 | 0 | 0 | 0 | 0 | Plant response rating, Barnyardgrass (barnyardgrass [1]; preemergence, 500 g ai/ha, 0 to 100 scale, 0 is no effect and 100 is complete control): 0; Plant response rating, Foxtail, Giant (giant foxtail; [7]): 0; Pigweed plant response rating (0 to 100 scale, 0 is no effect, 100 is complete control) (pigweed; Postemergence, 500 g ai/ha): 0; Plant response rating, Pigweed (pigweed; [7]): 0; Plant response rating, Wheat (wheat): 0; Wheat plant response rating (0 to 100 scale, 0 is no effect, 100 is complete control) (wheat): 0; Plant response rating, Corn (corn): 0; Corn plant response rating (0 to 100 scale, 0 is no effect, 100 is complete control) (corn): 0; Plant response rating, Blackgrass (blackgrass): 0; Blackgrass plant response rating (0 to 100 scale, 0 is no effect, 100 is complete control) (blackgrass): 0; Plant response rating, Galium (galium): 0; Galium plant response rating (0 to 100 scale, 0 is no effect, 100 is complete control) (galium): 0; Plant response rating, Rice (rice): 0; Plant response rating, Sedge, Umbrella (sedge, umbrella): 0; Plant response rating, Ducksalad (ducksalad): 30; Plant response rating, Barnyardgrass (barnyardgrass [2]): 0 |
| O=C1NCC(c2cccc(C3CC3)c2)C1C(=O)Nc1ccc(F)c(F)c1F (racemic) [Compound 168] | 90 | 90 | 90 | 40 | 40 | 60 | 60 | 0 | 0 | 20 | 50 | 0 | 20 | 50 | 40 | 90 | 90 | 90 | 40 | 0 | Plant response rating, Barnyardgrass (barnyardgrass [1]; preemergence, 500 g ai/ha, 0 to 100 scale (0 no effect, 100 complete control)): 90; Plant response rating, Foxtail, Giant (giant foxtail; preemergence, 500 g ai/ha): 90; Pigweed plant response rating (0 to 100 scale, 0 is no effect, 100 is complete control) (pigweed; Postemergence, 500 g ai/ha): 40; Plant response rating, Pigweed (pigweed; [7]): 50; Plant response rating, Wheat (wheat): 0; Wheat plant response rating (0 to 100 scale, 0 is no effect, 100 is complete control) (wheat): 40; Plant response rating, Corn (corn): 30; Corn plant response rating (0 to 100 scale, 0 is no effect, 100 is complete control) (corn): 70; Plant response rating, Blackgrass (blackgrass): 40; Blackgrass plant response rating (0 to 100 scale, 0 is no effect, 100 is complete control) (blackgrass): 60; Plant response rating, Galium (galium): 60; Galium plant response rating (0 to 100 scale, 0 is no effect, 100 is complete control) (galium): 70; Plant response rating, Rice (rice): 0; Plant response rating, Sedge, Umbrella (sedge, umbrella): 0; Plant response rating, Ducksalad (ducksalad): 100; Plant response rating, Barnyardgrass (barnyardgrass [2]): 65 |
